Experimental data reported in patent US10654828B2 (NOVARTIS AG, priority 2017, dated 2020).

Legend:
FoxO3a = FoxO3a inhibition: GFP-FoxO3a nuclear to cytoplasmic translocation reporter assay; type: cell-based; conditions: Homo sapiens, U2OS, 0.5 h, U2OS GFP-FoxO3a H212R cells, serum starved overnight, compound 30 minutes; ratio of nuclear to cytosolic GFP intensity; DMSO control 0%; read-out: FoxO AC50
Outline: (§1)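 Serum-starved U2OS cells expressing GFP-FoxO3a H212R treated with compounds 30 min, fixed, imaged. FoxO3a: nuclear/cytosolic GFP ratio, %. AKT: total cellular phospho-AKT (Ser473) antibody staining intensity, %. DMSO set as 0% activity.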

AKT = AKT activation: Phospho-AKT (Ser473) antibody staining in reporter cells; type: cell-based; conditions: Homo sapiens, U2OS, 0.5 h, U2OS GFP-FoxO3a H212R cells, serum starved overnight, compound 30 minutes; total cellular intensity of Phospho-AKT (Ser473) staining; DMSO control 0%
Outline: as §1

| SMILES | AC50 (FoxO3a) [nM] | AC50 (AKT) [nM] |
| --- | --- | --- |
| Cc1nc(C(N)=O)nn1-c1ccc2c(ccn2Cc2ccc(-c3ccc(CN4CCCC4)cc3)cc2)c1 [Example 28, 5-methyl-1-(1-((4′-(pyrrolidin-1-ylmethyl)-[1,1′-biphenyl]-4-yl)methyl)-1H-indol-5-yl)-1H-1,2,4-triazole-3-carboxamide] | 87 | 251 |
| Cc1cc(C(N)=O)nn1-c1ccc2c(ccn2Cc2ccc(-c3ccc(S(C)(=O)=O)nc3)cc2)c1 [Example 30-1, 5-methyl-1-(1-(4-(6-(methylsulfonyl)pyridin-3-yl)benzyl)-1H-indol-5-yl)-1H-pyrazole-3-carboxamide] | 124 | 633 |
| Cc1cc(C(N)=O)nn1-c1ccc2c(ccn2Cc2ccc(-c3ccc(C(C)(C)O)cn3)cc2)c1 [Example 30-2, 1-(1-(4-(5-(2-hydroxypropan-2-yl)pyridin-2-yl)benzyl)-1H-indol-5-yl)-5-methyl-1H-pyrazole-3-carboxamide] | 223 | 320 |
| Cc1cc(C(N)=O)nn1-c1ccc2c(ccn2Cc2ccc(-c3ccc(C(C)(C)O)nc3)cc2)c1 [Example 30-3, 1-(1-(4-(6-(2-hydroxypropan-2-yl)pyridin-3-yl)benzyl)-1H-indol-5-yl)-5-methyl-1H-pyrazole-3-carboxamide] | 126 | 572 |
| Cc1cc(C(N)=O)nn1-c1ccc2c(ccn2Cc2ccc(CC3CN(C)C3)cc2)c1 [Example 32, 5-methyl-1-(1-(4-((1-methylazetidin-3-yl)methyl)benzyl)-1H-indol-5-yl)-1H-pyrazole-3-carboxamide] | 1040 | 4360 |
| Cc1cc(C(N)=O)nn1-c1ccc2c(ccn2Cc2ccc([C@@]34C[C@@H]3CN(C)C4)cc2)c1 [Example 33, 5-methyl-1-(1-(4-((1R,5S)-3-methyl-3-azabicyclo[3.1.0]hexan-1-yl)benzyl)-1H-indol-5-yl)-1H-pyrazole-3-carboxamide] | 383 | 2810 |
| Cc1cc(C(N)=O)nn1-c1ccc2c(ccn2Cc2ccc(-c3ccc(CN4CCC[C@H]4CO)cc3)cc2)c1 [Example 34-1, (S)-1-(1-((4′-((2-(hydroxymethyl)pyrrolidin-1-yl)methyl)-[1,1′-biphenyl]-4-yl)methyl)-1H-indol-5-yl)-5-methyl-1H-pyrazole-3-carboxamide] | 119 | 184 |
| Cc1cc(C(N)=O)nn1-c1ccc2c(ccn2Cc2ccc(-c3ccc(CN4CCC[C@@H]4CO)cc3)cc2)c1 [Example 34-2, (R)-1-(1-((4′-((2-(hydroxymethyl)pyrrolidin-1-yl)methyl)-[1,1′-biphenyl]-4-yl)methyl)-1H-indol-5-yl)-5-methyl-1H-pyrazole-3-carboxamide] | 42 | 3 |
| Cc1cc(C(N)=O)nn1-c1ccc2c(ccn2Cc2ccc(-c3ccc(CN4CCN(C)CC4)cc3)cc2)c1 [Example 34-3, 5-methyl-1-(1-((4′-((4-methylpiperazin-1-yl)methyl)-[1,1′-biphenyl]-4-yl)methyl)-1H-indol-5-yl)-1H-pyrazole-3-carboxamide] | 131 | 266 |
| Cc1cc(C(N)=O)nn1-c1ccc2c(ccn2Cc2ccc(-c3ccc(CN4CCNCC4)cc3)cc2)c1 [Example 35, 5-methyl-1-(1-((4′-(piperazin-1-ylmethyl)-[1,1′-biphenyl]-4-yl)methyl)-1H-indol-5-yl)-1H-pyrazole-3-carboxamide] | 181 | 603 |
| Cc1cc(C(N)=O)nn1-c1ccc2c(ccn2Cc2ccc(-c3ccc(C(=O)N4CCN(C)CC4)cc3)cc2)c1 [Example 36, 5-methyl-1-(1-((4′-(4-methylpiperazine-1-carbonyl)-[1,1′-biphenyl]-4-yl)methyl)-1H-indol-5-yl)-1H-pyrazole-3-carboxamide] | 49 | 39 |
| Cc1cc(C(N)=O)nn1-c1ccc2c(ccn2Cc2ccc([C@H]3C[C@H]4CNC[C@H]4C3)cc2)c1 [Example 39, 5-methyl-1-(1-(4-((3aR,5r,6aS)-octahydrocyclopenta[c]pyrrol-5-yl)benzyl)-1H-indol-5-yl)-1H-pyrazole-3-carboxamide] | 175 | 907 |
| Cc1cc(C(N)=O)nn1-c1ccc2c(ccn2Cc2ccc([C@@H]3C[C@@H]4CN(CC5CC5)C[C@@H]4C3)cc2)c1 [Example 40, 1-(1-(4-((3aR,5r,6aS)-2-(cyclopropylmethyl)octahydrocyclopenta[c]pyrrol-5-yl)benzyl)-1H-indol-5-yl)-5-methyl-1H-pyrazole-3-carboxamide] | 161 | 1220 |
| Cc1cc(C(N)=O)nn1-c1ccc2c(ccn2Cc2ccc([C@@H]3C[C@@H]4CN(S(C)(=O)=O)C[C@@H]4C3)cc2)c1 [Example 41, 5-methyl-1-(1-(4-((3aR,5r,6aS)-2-(methylsulfonyl)octahydrocyclopenta[c]pyrrol-5-yl)benzyl)-1H-indol-5-yl)-1H-pyrazole-3-carboxamide] | 113 | 304 |
| Cc1cc(C(N)=O)nn1-c1ccc2c(ccn2Cc2ccc([C@@H]3C[C@@H]4CN(CCS(C)(=O)=O)C[C@@H]4C3)cc2)c1 [Example 42, 5-Methyl-1-(1-(4-((3aR,5r,6aS)-2-(2-(methylsulfonyl)ethyl)octahydrocyclopenta[c]pyrrol-5-yl)benzyl)-1H-indol-5-yl)-1H-pyrazole-3-carboxamide] | 69 | 230 |
| Cc1cn(Cc2ccc([C@@H]3C[C@@H]4CN(C)C[C@@H]4C3)cc2)c2ccc(-n3nc(C(N)=O)cc3C)cc12 [Example 43, 5-Methyl-1-(3-methyl-1-(4-((3aR,5r,6aS)-2-methyloctahydrocyclopenta[c]pyrrol-5-yl)benzyl)-1H-indol-5-yl)-1H-pyrazole-3-carboxamide] | 215 | 740 |
